In US4091006A, “Esters of 3-hydroxyindone compounds” (priority 1975, dated 1978):

Assays:
[1] = test system: adults and nymphal stages of the two-spotted mite; experiment: Mite Foliage Spray Test; format: in vivo, Tetranychus urticae (Koch); parameters: key: 1: no mortality; 3: an approximately 50% mortality; 5: 100% mortality; settings: 4 days
Description: (§1) The test procedures were as follows:
(§2) Compositions were rated on the basis of percent kill with a rating of 1 indicating no mortality; 3 signifying an approximately 50% mortality and 5 indicating 100% mortality at the indicated dosage.

[2] = test system: egg of the two-spotted mite; experiment: Mite Ovicide Test; format: in vivo, Tetranychus urticae (Koch); parameters: key to Mite Ova rating: 1: no mortality; 3: an approximately 50% mortality; 5: 100% mortality; settings: spray on eggs, 4 days
Description: as §1
The plants were allowed to dry thoroughly.
as §2

[3] = test system: Perennial rye grass, crabgrass, red root pigweed, mustard; experiment: Preliminary Herbicide Seed Germination Test; settings: each rated 1 (no injury) to 5 (no seedlings emerged)
[4] = rating/maximum 40: 100 and 1000 ppm, four species, 10-12 days
[5] = rating/maximum 20: 100 ppm only, four species
[6] = rating/maximum 15: 100 ppm only, crabgrass omitted

| Compound | Mite Adult rating [1] | Mite Ova rating [2] | Herbicide (total preemergence rating) [3, 4] | Herbicide (total preemergence rating) [3, 5] | Herbicide (total preemergence rating) [3, 6] |
| --- | --- | --- | --- | --- | --- |
| 2-(2',6'-Dichlorophenyl)-4(7)-methyl-3-(pivaloxyloxy)indone | 1 | 3 (an approximately 50% mortality) | 20/40 | – | – |
| 2-(2',6'-Dichlorophenyl)-5(6)-methyl-3-(pivaloyloxy)indone | 5 (100% mortality) | 5 (100% mortality) | 24/40 | – | – |
| 2-(2'-Methoxyphenyl)-3-(neodecanoyloxy)indone | 1 | 1 | – | 4/20 | – |
| 3-(Acetoxy)-4(7)-methyl-2-(2',6'-dichlorophenyl)indone | 5 (100% mortality) | 5 (100% mortality) | 37/40 | – | – |
| CC(C)c1cccc(C(C)C)c1C1=C(OC(=O)C(C)(C)C)c2ccccc2C1=O [2-(2'6'-diisopropyl)phenyl-3-pivaloyloxyindone] | 1 | 1 | – | – | 3/15 |
| Cc1cc(C)c(C2=C(OC(=O)COc3ccc(Cl)cc3Cl)c3ccccc3C2=O)c(C)c1 [2-(2',4',6'-Trimethylphenyl)-3-(2,4-dichlorophenoxyacetoxy)indone] | 5 (100% mortality) | 5 (100% mortality) | – | 20/20 | – |
| CNC(=O)N(C)C(=O)OC1=C(c2c(C)cc(C)cc2C)C(=O)c2ccccc21 [2-(2',4',6'-Trimethylphenyl)-3-(2,4-dimethylallophanoyloxy)indone] | 1 | 5 (100% mortality) | – | 16/20 | – |
| Cc1cc(C)c(C2=C(OC(=O)c3ccco3)c3ccccc3C2=O)c(C)c1 [2-(2',4',6'-Trimethylphenyl)-3-(2-furoyloxy)indone] | 5 (100% mortality) | 5 (100% mortality) | – | 17/20 | – |
| Cc1cc(C)c(C2=C(OC(=O)c3cccs3)c3ccccc3C2=O)c(C)c1 [2-(2',4',6'-Trimethylphenyl)-3-(2-thenoyloxy)indone] | 5 (100% mortality) | 5 (100% mortality) | – | 18/20 | – |
| Cc1cc(C)c(C2=C(OC(=O)c3cccnc3)c3ccccc3C2=O)c(C)c1 [2-(2',4',6'-Trimethylphenyl)-3-(3-pyridinecarbonyloxy)indone] | 5 (100% mortality) | 5 (100% mortality) | – | 18/20 | – |
| Cc1cc(C)c(C2=C(OC(=O)N3CCOCC3)c3ccccc3C2=O)c(C)c1 [2-(2',4',6'-Trimethylphenyl)-3-(4-(morpholino)carbonyloxy)indone] | 3 (an approximately 50% mortality) | 5 (100% mortality) | – | 4/20 | – |
| Cc1cc(C)c(C2=C(OC(=O)Oc3ccc(Cl)cc3)c3ccccc3C2=O)c(C)c1 [2-(2',4',6'-Trimethylphenyl)-3-(4-chlorophenyloxycarbonyloxy)indone] | 5 (100% mortality) | 5 (100% mortality) | – | 19/20 | – |
| CCCCN(CCCC)C(=O)OC1=C(c2c(C)cc(C)cc2C)C(=O)c2ccccc21 [2-(2',4',6'-Trimethylphenyl)-3-(N,N-di(butyl)carbamoyloxy)indone] | 3 (an approximately 50% mortality) | 1 | – | 10/20 | – |
| Cc1cc(C)c(NC(=O)OC2=C(c3c(C)cc(C)cc3C)C(=O)c3ccccc32)c(C)c1 [2-(2',4',6'-Trimethylphenyl)-3-(N-(2,4,6-Trimethylphenyl)-carbamoyloxy)indone] | 5 (100% mortality) | 5 (100% mortality) | – | 4/20 | – |
| Cc1cc(C)c(C2=C(OC(=O)NC(C)(C)C)c3ccccc3C2=O)c(C)c1 [2-(2',4',6'-Trimethylphenyl)-3-(N-(t-butyl)carbamoyloxy)indone] | 5 (100% mortality) | 5 (100% mortality) | – | 15/20 | – |
| CCCCN(C)C(=O)OC1=C(c2c(C)cc(C)cc2C)C(=O)c2ccccc21 [2-(2',4',6'-Trimethylphenyl)-3-(N-butyl-N-methylcarbamoyloxy)indone] | 1 | 1 | – | 4/20 | – |
| Cc1cc(C)c(C2=C(OC(=O)N(C)C3CCCCC3)c3ccccc3C2=O)c(C)c1 [2-(2',4',6'-Trimethylphenyl)-3-(N-cyclohexyl-N-methylcarbamoyloxy)indone] | 5 (100% mortality) | 5 (100% mortality) | – | 16/20 | – |

| Compound | Mite Adult rating [1] | Mite Ova rating [2] | Herbicide (total preemergence rating) [3, 4] | Herbicide (total preemergence rating) [3, 5] | Herbicide (total preemergence rating) [3, 6] |
| --- | --- | --- | --- | --- | --- |
| Cc1cc(C)c(C2=C(OC(=O)N(C)c3ccccc3)c3ccccc3C2=O)c(C)c1 [2-(2',4',6'-Trimethylphenyl)-3-(N-methyl-N-phenylcarbamoyloxy)indone] | 1 | 3 (an approximately 50% mortality) | – | 10/20 | – |
| CCCC(=O)OC1=C(c2c(C)cc(C)cc2C)C(=O)c2ccccc21 [2-(2',4',6'-Trimethylphenyl)-3-(butyryloxy)indone] | 5 (100% mortality) | 5 (100% mortality) | – | – | 15/15 |
| Cc1cc(C)c(C2=C(OC(=O)Cl)c3ccccc3C2=O)c(C)c1 [2-(2',4',6'-Trimethylphenyl)-3-(chlorocarbonyloxy)indone] | 5 (100% mortality) | 5 (100% mortality) | – | 13/20 | – |
| Cc1cc(C)c(C2=C(OC(=O)N(C)C)c3ccccc3C2=O)c(C)c1 [2-(2',4',6'-Trimethylphenyl)-3-(dimethylcarbamoyloxy)indone] | 3 (an approximately 50% mortality) | 5 (100% mortality) | – | 14/20 | – |
| CCCCCCCCCCCC(=O)OC1=C(c2c(C)cc(C)cc2C)C(=O)c2ccccc21 [2-(2',4',6'-Trimethylphenyl)-3-(dodecanoyloxy)indone] | 5 (100% mortality) | 5 (100% mortality) | – | 17/20 | – |
| CSCC(=O)OC1=C(c2c(C)cc(C)cc2C)C(=O)c2ccccc21 [2-(2',4',6'-Trimethylphenyl)-3-(methylthioacetoxy)indone] | 5 (100% mortality) | 5 (100% mortality) | – | 19/20 | – |
| CCCCCCCCCCCCCCCCCCOC(=O)OC1=C(c2c(C)cc(C)cc2C)C(=O)c2ccccc21 [2-(2',4',6'-Trimethylphenyl)-3-(octadecyloxycarbonyloxy)indone] | 5 (100% mortality) | 5 (100% mortality) | – | – | 13/15 |
| CCCCCCCCOC(=O)OC1=C(c2c(C)cc(C)cc2C)C(=O)c2ccccc21 [2-(2',4',6'-Trimethylphenyl)-3-(octyloxycarbonyloxy)indone] | 5 (100% mortality) | 5 (100% mortality) | – | 16/20 | – |
| CCCCC(=O)OC1=C(c2c(C)cc(C)cc2C)C(=O)c2ccccc21 [2-(2',4',6'-Trimethylphenyl)-3-(pentanoyloxy)indone] | 5 (100% mortality) | 5 (100% mortality) | – | – | 15/15 |
| Cc1cc(C)c(C2=C(OC(=O)Cc3ccccc3)c3ccccc3C2=O)c(C)c1 [2-(2',4',6'-Trimethylphenyl)-3-(phenylacetoxy)indone] | 5 (100% mortality) | 5 (100% mortality) | – | 19/20 | – |
| Cc1cc(C)c(C2=C(OC(=O)N3CCCCC3)c3ccccc3C2=O)c(C)c1 [2-(2',4',6'-Trimethylphenyl)-3-(piperdinocarbonyloxy)indone] | 1 | 3 (an approximately 50% mortality) | – | 4/20 | – |
| CCCC(C)C(=O)OC1=C(c2ccc(C)cc2C)C(=O)c2ccccc21 (centres unmarked) [2-(2',4'-Dimethylphenyl)-3-(2-methylpentanoyloxy)indone] | 3 (an approximately 50% mortality) | 5 (100% mortality) | – | 14/20 | – |
| CCCCCCCCCCCC(=O)OC1=C(c2ccc(C)cc2C)C(=O)c2ccccc21 [2-(2',4'-Dimethylphenyl)-3-(lauroyloxy)indone] | 5 (100% mortality) | 5 (100% mortality) | – | 14/20 | – |
| CCCCCCCCCCCCCCCCCC(=O)OC1=C(c2ccc(C)cc2C)C(=O)c2ccccc21 [2-(2',4'-Dimethylphenyl)-3-(stearoyloxy)indone] | 3 (an approximately 50% mortality) | 5 (100% mortality) | – | 14/20 | – |
| CCC(CC)C(=O)OC1=C(c2cc(C)ccc2C)C(=O)c2ccccc21 [2-(2',5'-Dimethylphenyl)-3-(2-ethylbutanoyloxy)indone] | 3 (an approximately 50% mortality) | 5 (100% mortality) | – | 4/20 | – |
| CC(C)c1ccccc1C1=C(OC(=O)C(C)(C)C)c2ccccc2C1=O [2-(2'-isopropylphenyl)-3-pivaloyloxyindone] | 1 | – | – | 4/20 | – |
